SMILES strings stand for the structures. Entries after “also recorded” stand apart in the source; their conditions may differ.

Holding throughout (assay type): cell-based, murine
Test [1] has as its system 3T3-L1 cells. Kind of test: DNA fragmentation (Roche Cell Death Detection ELISA) in stable knockout populations and clones. The note with it: 10^−7M. The procedure: DNA Fragmentation (ELISA method): Apoptopic cells show hallmark random DNA fragmentation between nucleosomes. The “Cell Death Detection ELISA” format by Roche (Mannheim, Germany) was used in the following examples. Culture treatments and controls were performed for the tested period and after counting the cells and washing them twice with PBS, 250,000 cells/aliquot were prepared and stored dry at −180° C. until assay. Multiple replicates were usually prepared for assay together on the same day in the same kit. Assay was carried out exactly as described by the manufacturer on 250,000 cells/aliquot.
One hallmark of apoptosis is DNA fragmentation. In the current studies the Roche (Mannheim, Germany) version of this assay was used in the format of an ELISA assay, which measures released intact DNA/Histone-nucleosomes. The results are presented as antisense knockout levels normalized to parallel control values. In the experiment shown in FIGS. 10A-10B, populations of 3T3-L1 cells with either of the two 12Lo antisense knockout plasmids (“mp”-pCMV5′mp12Lo(Pst1)-A; “600a”-pcDNAh60012LoA) versus controls (“Con”) were directly compared: cell death versus relative DNA fragmentation.
To further validate the mechanism of cell death the Roche Cell Death kit was applied as a measure of DNA fragmentation, which is a classic apoptopic hallmark. […]
For orientation: In an ELISA, binding on a coated surface is turned into a signal by an enzyme label.

The test system of the next test is 3T3-L1 stable cell lines. Kind of test: Necrosis by lactate dehydrogenase (LDH) release. On the procedure: Lactate Dehydrogenase Release (LDH): Necrotic cells release their cytoplasmic contents into the surrounding medium. In recent years the measurement of one such stable enzyme, LDH, has become a standard laboratory marker of necrosis (Goeptar et al., 1994; Moran et al., 1996). Cell cultures and treatments tested for LDH release had their supernatants collected, centrifuged (1,100×g, 5 minutes; to remove particulate debris) and supernatants tested automatically in a centralized facility (in-house) by method of Moran and Schnellmann (Moran et al., 1996), 1996. In each study a positive control for LDH release was a 1/5000 dilution of triton X100 directly into the cell culture, for the period of the bioassay. Negative control was medium without cells.
Cell death can occur as a result of different processes: apoptosis, which is a very programmed process, as well as other less programmed mechanisms such as necrosis. […] In recent years, investigators have been measuring the release of lactate dehydrogenase (LDH) from cells as a measure of cellular necrosis. The contribution of necrosis in the cell death of the 12Lo reduced expressing clones was thus examined by comparing LDH release from control and pCMV600a 12Lo antisense knockout stable preadipocyte cell lines grown in the presence or absence of 12-HETE. In FIG. 15, typical data of such a study is presented.

The subject of test [2] is 3T3-L1 cells. Kind of test: Basal cell death of stable 12Lo antisense knockout populations and clones (trypan blue).
The subject of test [3] is 3T3-L1 cells. Kind of test: G418 selection kill level. The note with it: 600 μg/ml G418 over two weeks. The procedure: 600 μg/ml is enough G418 to kill 100% 3T3-L1 cells over 2 weeks. Thus the levels used clearly distinguish between cells that incorporated G418 resistance (within the expression plasmid used) into their genomes and cells lacking this marker. A few passages after G418 release stable populations should recover and fill the plate.
The Fugene6 protocol was then used again for preparation of 12Lo antisense knockout and control clones together with the G418 selection marker as G418 resistance was built in to the pCDNA3.1 plasmid (see FIGS. 2A-2D). It was herein determined that 600 μg/ml G418 killed 100% of 3T3-L1 cells over two weeks. So on transfection of cells and selection with 650 μg/ml G418 over three weeks only those cells expressing strong […] resistance would survive and grow. Following three weeks of selection G418 release was gradual over the next 1-2 weeks.

As for `CCCCC/C=C\C[C@@H](O)/C=C/C=C\C/C=C\CCCC(=O)O` [12-HETE, 12 hydroxyeicosatetraenoic acid], the “effect of 12-HETE on DNA fragmentation levels” value in the test with 3T3-L1 cells [1] (each of the pCMV600a clonal stable lines) was “reduced the DNA fragmentation levels”. Further, in the test with 3T3-L1 cells [1] (pCMV600a clone 10), the “DNA fragmentation level on supplemented 12-HETE” value was “nearly “normal” (or control) levels”. Further, the “effect of 12-HETE on cell necrosis (LDH release)” value with 3T3-L1 stable cell lines is “no effect”. In the test on 3T3-L1 cells [2] (12-HETE 10^−7 M), the “effect of added 12-HETE on cell death of 12Lo antisense knockout clones” value is given as “much less cell death; also recorded: encouraged cell survival”. Moreover, the “effect of 12-HETE on cell survival of control clone” value in the test with 3T3-L1 cells [2] (pCMVCAT stably transfected 3T3-L1 cells, 10^−7M) is “no effect”.
In the test on 3T3-L1 cells [3], `CN[C@@H]1[C@@H](O)[C@@H](O[C@@H]2[C@@H](O)[C@H](O[C@H]3O[C@H]([C@@H](C)O)[C@@H](O)[C@H](O)[C@H]3N)[C@@H](N)C[C@H]2N)OC[C@]1(C)O` [G418] had a 3T3-L1 cells killed of 100%.
